Test results taken from ChEMBL document CHEMBL5604063, “ASAP - DENV-2 NS2B-NS3 protease fluorescence dose response” (2024).
Where “and” joins values, the source holds several entries; their conditions need not be identical. Equal values may be shown once.

How the values were obtained:
[1] = biological target: T1, Genome polyprotein (dengue virus type 2, UniProt P29990); assay type: functional, Thailand/16681/1984
[2] = biological target: T1, Genome polyprotein; assay type: functional, Thailand/16681/1984; remark: listed apart in the source

T1 sequence (P29990 1346-1475 limits assumed): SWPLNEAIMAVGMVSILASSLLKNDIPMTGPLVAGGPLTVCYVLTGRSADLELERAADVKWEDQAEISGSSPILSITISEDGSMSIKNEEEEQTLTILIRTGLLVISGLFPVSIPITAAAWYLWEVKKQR
T1 sequence (P29990 1476-2093 limits assumed): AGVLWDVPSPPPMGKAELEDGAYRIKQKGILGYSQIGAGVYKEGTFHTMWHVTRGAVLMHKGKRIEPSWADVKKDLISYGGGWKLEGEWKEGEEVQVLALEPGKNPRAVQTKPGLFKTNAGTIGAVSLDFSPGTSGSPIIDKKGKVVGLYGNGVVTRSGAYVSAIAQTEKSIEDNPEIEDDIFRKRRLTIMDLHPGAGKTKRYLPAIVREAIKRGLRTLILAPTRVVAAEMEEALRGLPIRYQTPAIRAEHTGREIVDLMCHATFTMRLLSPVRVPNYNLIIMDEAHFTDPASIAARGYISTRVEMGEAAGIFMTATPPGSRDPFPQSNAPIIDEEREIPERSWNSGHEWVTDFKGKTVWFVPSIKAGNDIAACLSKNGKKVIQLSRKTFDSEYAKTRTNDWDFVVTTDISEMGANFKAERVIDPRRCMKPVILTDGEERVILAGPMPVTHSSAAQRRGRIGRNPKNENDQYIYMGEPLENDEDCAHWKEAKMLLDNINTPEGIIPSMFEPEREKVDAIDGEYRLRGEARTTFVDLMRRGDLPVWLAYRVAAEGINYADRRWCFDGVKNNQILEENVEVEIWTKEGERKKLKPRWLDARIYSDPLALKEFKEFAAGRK

NCc1cccc(NC(=O)[C@@H](NC(=O)OCc2ccccc2)C2CCN(S(=O)(=O)C3CCCC3)CC2)c1
IC50 [1]: > 99.5 µM | IC50 [2]: > 100 µM

NCc1cccc(NC(=O)c2cc(NC(=O)OCc3ccccc3)ccc2C(F)(F)F)c1
IC50 [1]: > 99.5 µM | IC50 [2]: > 100 µM

NCc1cccc(NC(=O)c2cc(Cl)cc(-n3cccc3)c2)c1
IC50 [1]: > 99.5 µM | IC50 [2]: > 100 µM

N#Cc1csc(CN2CCC([C@H](NC(=O)OCc3ccccc3)C(=O)Nc3cccc(CN)c3)CC2)c1
IC50 [1]: > 99.5 µM | IC50 [2]: > 100 µM

NCc1cccc(NC(=O)[C@@H](NC(=O)OCc2ccccc2)C2CCN(C(=O)C3CC3)CC2)c1
IC50 [1]: > 99.5 µM | IC50 [2]: > 100 µM

NCc1cccc(NC(=O)[C@H](NC(=O)OCc2ccccc2)C2CCN(C(=O)[C@H]3C[C@H](O)C3)CC2)c1
IC50 [1]: > 99.5 µM | IC50 [2]: > 100 µM

Cn1ccc(COc2ccc([C@@H](NC(=O)OCc3ccccc3)C(=O)Nc3cccc(CN)c3)cc2)n1
IC50 [1]: > 99.5 µM | IC50 [2]: > 100 µM

NCc1cccc(NC(=O)[C@@H](NC(=O)OCc2ccccc2)C2CCN(Cc3cn[nH]c3)CC2)c1
IC50 [1]: > 99.5 µM | IC50 [2]: > 100 µM

Cn1nc2c(c1NC(=O)c1cc(Cl)cc(NC(=O)OCc3ccccc3)c1)CCNC2
IC50 [1]: > 99.5 µM | IC50 [2]: > 100 µM

N#CC1(S(=O)(=O)N2CCC([C@H](NC(=O)OCc3ccccc3)C(=O)Nc3cccc(CN)c3)CC2)CCC1
IC50 [1]: 81.8 µM | IC50 [2]: > 100 µM

NCc1cccc(NC(=O)c2cc(Cl)cc(N3CCCC3)c2)c1
IC50 [1]: > 99.5 µM | IC50 [2]: > 100 µM

C[C@@H]1CNC[C@H]1c1ccc(NC(=O)c2ccc3c(c2)SCCN3)cc1
IC50 [1]: > 99.5 µM | IC50 [2]: > 100 µM

Cc1nnsc1CN1CCC([C@@H](NC(=O)OCc2ccccc2)C(=O)Nc2cccc(CN)c2)CC1
IC50 [1]: > 99.5 µM | IC50 [2]: > 100 µM

N#Cc1ccc(N2CCN(Cc3c[nH]c4ccccc34)CC2)cc1
IC50 [1]: > 99.5 µM | IC50 [2]: > 100 µM

NCc1cccc(NC(=O)[C@@H](NC(=O)OCc2ccccc2)C2CCN(Cc3cccnc3)CC2)c1
IC50 [1]: > 99.5 µM | IC50 [2]: > 100 µM

N#Cc1cc(Cl)cc(C(=O)Nc2cccc(CN)c2)c1
IC50 [1]: > 99.5 µM | IC50 [2]: > 100 µM

c1ccc(-c2[nH]c3ccccc3c2CN2CCC(c3cscn3)CC2)cc1
IC50 [1]: > 99.5 µM | IC50 [2]: > 100 µM

NCc1cccc(NC(=O)[C@@H](NC(=O)OCc2ccccc2)C2CCN(C(=O)c3cscn3)CC2)c1
IC50 [1]: > 99.5 µM | IC50 [2]: > 100 µM

NCc1cccc(NC(=O)[C@@H](NC(=O)OCc2ccccc2)c2ccc(OCC3CCOCC3)cc2)c1
IC50 [1]: 86 µM | IC50 [2]: > 100 µM

NCc1cccc(NC(=O)c2cc(Cl)ccc2Oc2cccc(Cl)c2)c1
IC50 [1]: > 99.5 µM | IC50 [2]: > 100 µM

O=C(Cn1ccnc(N2CC[C@H](CO)C2)c1=O)NCc1ccsc1
IC50 [1]: > 99.5 µM | IC50 [2]: > 100 µM

Cn1nnc(S(=O)(=O)N2CCC([C@H](NC(=O)OCc3ccccc3)C(=O)Nc3cccc(CN)c3)CC2)n1
IC50 [1]: > 99.5 µM | IC50 [2]: > 100 µM

NS(=O)(=O)c1ccccc1N1CCN(Cc2c[nH]c3ccccc23)CC1
IC50 [1]: > 99.5 µM | IC50 [2]: > 100 µM

NCc1cccc(NC(=O)[C@@H](NC(=O)OCc2ccccc2)c2ccc(OCc3ccccn3)cc2)c1
IC50 [1]: > 99.5 µM | IC50 [2]: > 100 µM

NCc1cccc(NS(=O)(=O)c2cc(Cl)cc(NC(=O)OCc3ccccc3)c2)c1
IC50 [1]: > 99.5 µM | IC50 [2]: > 100 µM

CCOC(=O)Nc1cc(Cl)cc(C(=O)Nc2cccc(CN)c2)c1
IC50 [1]: > 99.5 µM | IC50 [2]: > 100 µM

NCc1cccc(NC(=O)[C@@H](NC(=O)OCc2ccccc2)c2ccc(OCc3nc4c(s3)COCC4)cc2)c1
IC50 [1]: > 99.5 µM | IC50 [2]: > 100 µM

NCCCc1ccc(F)c(NC(=O)c2cc(Cl)cc(NC(=O)OCc3ccccc3)c2)c1
IC50 [1]: 27.8 µM | IC50 [2]: 91.1 µM

CC(C)OC(=O)Nc1cc(Cl)cc(C(=O)Nc2cccc(CN)c2)c1
IC50 [1]: > 99.5 µM | IC50 [2]: > 100 µM

NC[C@@H](NC(=O)c1cc(Cl)cc(NC(=O)OCc2ccccc2)c1)c1ccccc1
IC50 [1]: > 99.5 µM | IC50 [2]: > 100 µM

NC[C@H]1C[C@@H](CNC(=O)c2cc(Cl)cc(NC(=O)OCc3ccccc3)c2)CCO1
IC50 [1]: > 99.5 µM | IC50 [2]: > 100 µM

c1ccc(N2CCN(Cc3c[nH]c4ccccc34)CC2)nc1
IC50 [1]: > 99.5 µM | IC50 [2]: > 100 µM

c1ccc(COc2ccc3c(CN4CCC(c5cscn5)CC4)c[nH]c3c2)cc1
IC50 [1]: > 99.5 µM | IC50 [2]: > 100 µM

NCc1cccc(NC(=O)[C@@H](NC(=O)OCc2ccccc2)C2CCN(S(=O)(=O)Cc3cscn3)CC2)c1
IC50 [1]: > 99.5 µM | IC50 [2]: > 100 µM

O=C(Nc1cc(Cl)cc(C(=O)NC[C@H]2CC3(CNC3)CO2)c1)OCc1ccccc1
IC50 [1]: > 99.5 µM | IC50 [2]: > 100 µM

C[C@@]1(CNC(=O)c2cc(Cl)cc(NC(=O)OCc3ccccc3)c2)CNCCOC1
IC50 [1]: > 99.5 µM | IC50 [2]: > 100 µM

Cn1ccnc1COc1cccc([C@H](NC(=O)OCc2ccccc2)C(=O)Nc2cccc(CN)c2)c1
IC50 [1]: > 99.5 µM | IC50 [2]: > 100 µM

Cc1nnc(S(=O)(=O)N2CCC([C@H](NC(=O)OCc3ccccc3)C(=O)Nc3cccc(CN)c3)CC2)s1
IC50 [1]: > 99.5 µM | IC50 [2]: > 100 µM

NCc1cccc(NC(=O)[C@@H](NC(=O)OCc2ccccc2)c2ccc(OC[C@H]3CCS(=O)(=O)C3)cc2)c1
IC50 [1]: > 99.5 µM | IC50 [2]: > 100 µM

O=C(Cn1ccnc(N2CC[C@H](CO)C2)c1=O)NCc1cccs1
IC50 [1]: > 99.5 µM | IC50 [2]: > 100 µM

NCc1cccc(NC(=O)c2cc(Cl)cc(Cl)c2O)c1
IC50 [1]: > 99.5 µM | IC50 [2]: > 100 µM

NC[C@H]1C[C@](F)(CNC(=O)c2cc(Cl)cc(NC(=O)OCc3ccccc3)c2)C1
IC50 [1]: > 99.5 µM | IC50 [2]: > 100 µM

CN1CCC(COc2cccc([C@H](NC(=O)OCc3ccccc3)C(=O)Nc3cccc(CN)c3)c2)CC1
IC50 [1]: > 99.5 µM | IC50 [2]: > 100 µM

NCc1cccc(NC(=O)[C@@H](NC(=O)OCc2ccccc2)C2CCN(S(=O)(=O)[C@H]3CCOC3)CC2)c1
IC50 [1]: > 99.5 µM | IC50 [2]: > 100 µM

CC(=O)Nc1cc(Cl)cc(C(=O)Nc2cccc(CN)c2)c1
IC50 [1]: > 99.5 µM | IC50 [2]: > 100 µM

NC[C@]12CC[C@](NC(=O)c3cc(Cl)cc(NC(=O)OCc4ccccc4)c3)(CO1)C2
IC50 [1]: > 99.5 µM | IC50 [2]: > 100 µM

Cc1cccc(CNc2ccc(Cl)cc2C(=O)Nc2cccc(CN)c2)n1
IC50 [1]: > 99.5 µM | IC50 [2]: > 100 µM

NCc1cccc(NC(=O)[C@@H](NC(=O)OCc2ccccc2)C2CCN(Cc3ccncc3)CC2)c1
IC50 [1]: > 99.5 µM | IC50 [2]: > 100 µM

CN(C)Cc1csc(NC(=O)c2cc(Cl)cc(NC(=O)OCc3ccccc3)c2)n1
IC50 [1]: > 99.5 µM | IC50 [2]: > 100 µM

NCc1cccc(NC(=O)[C@@H](NC(=O)OCc2ccccc2)C2CCN(S(=O)(=O)Cc3ncon3)CC2)c1
IC50 [1]: > 99.5 µM | IC50 [2]: > 100 µM

NCc1cccc(NC(=O)c2nc(=O)cc(NC(=O)OCc3ccccc3)[nH]2)c1
IC50 [1]: > 99.5 µM | IC50 [2]: > 100 µM

CNCc1cccc(NC(=O)c2cc(Cl)cc(NC(=O)OCc3ccccc3)c2)c1
IC50 [1]: 80.5 µM | IC50 [2]: > 100 µM

NCc1cccc(NC(=O)[C@@H](NC(=O)OCc2ccccc2)C2CCN(C3CCOCC3)CC2)c1
IC50 [1]: > 99.5 µM | IC50 [2]: > 100 µM

NCc1cccc(NC(=O)[C@H](NC(=O)OCc2ccccc2)c2ccc(OCCc3cscn3)cc2)c1
IC50 [1]: > 99.5 µM | IC50 [2]: > 100 µM

Clc1ccc2c(CN3CCC(c4c[nH]c5ncccc45)CC3)c[nH]c2c1
IC50 [1]: > 99.5 µM | IC50 [2]: > 100 µM

Cc1ncc(COc2ccc([C@@H](NC(=O)OCc3ccccc3)C(=O)Nc3cccc(CN)c3)cc2)o1
IC50 [1]: > 99.5 µM | IC50 [2]: > 100 µM

N[C@H]1CC[C@H](NC(=O)c2cc(Cl)cc(NC(=O)OCc3ccccc3)c2)C1
IC50 [1]: > 99.5 µM | IC50 [2]: > 100 µM

COCC(=O)N1CCC([C@@H](NC(=O)OCc2ccccc2)C(=O)Nc2cccc(CN)c2)CC1
IC50 [1]: > 99.5 µM | IC50 [2]: > 100 µM

Cc1nccn1-c1ccc(Cl)cc1C(=O)Nc1cccc(CN)c1
IC50 [1]: > 99.5 µM | IC50 [2]: > 100 µM

CN(C)Cc1cc(NC(=O)[C@H](NC(=O)OCc2ccccc2)c2ccc(OCc3ccccc3)cc2)sn1
IC50 [1]: > 99.5 µM | IC50 [2]: > 100 µM

NCc1ccccc1Oc1ccc(S(=O)(=O)Nc2ccc(Cl)cc2C(=O)NCC(F)(F)F)cc1
IC50 [1]: > 99.5 µM | IC50 [2]: > 100 µM

CC(C)S(=O)(=O)N1CCC([C@@H](NC(=O)OCc2ccccc2)C(=O)Nc2cccc(CN)c2)CC1
IC50 [1]: > 99.5 µM | IC50 [2]: > 100 µM

Cn1ccnc1C(=O)N1CCC([C@H](NC(=O)OCc2ccccc2)C(=O)Nc2cccc(CN)c2)CC1
IC50 [1]: > 99.5 µM | IC50 [2]: > 100 µM

CS(=O)(=O)N1CCC([C@@H](NC(=O)OCc2ccccc2)C(=O)Nc2cccc(CN)c2)CC1
IC50 [1]: > 99.5 µM | IC50 [2]: > 100 µM

O=C(Nc1cc(Cl)cc(C(=O)Nc2ccc3c(c2)CNCCO3)c1)OCc1ccccc1
IC50 [1]: > 99.5 µM | IC50 [2]: > 100 µM

O=C(Nc1cc(Cl)cc(C(=O)NC[C@H]2CNC3(CC3)CO2)c1)OCc1ccccc1
IC50 [1]: > 99.5 µM | IC50 [2]: > 100 µM

O=C(Nc1cc(Cl)cc(C(=O)Nc2nccn2C2CNC2)c1)OCc1ccccc1
IC50 [1]: > 99.5 µM | IC50 [2]: > 100 µM

NCc1cccc(NC(=O)[C@@H](NC(=O)OCc2ccccc2)c2ccc(OCCN3CCCCC3)cc2)c1
IC50 [1]: > 99.5 µM | IC50 [2]: > 100 µM

CCc1ccc([C@@H](CC(=O)Nc2cccc(CN)c2)NC(=O)OCc2ccccc2)cc1Br
IC50 [1]: 16.4 µM and 22.3 µM | IC50 [2]: 85.1 µM

NCc1cccc(NC(=O)[C@@H](NC(=O)OCc2ccccc2)c2ccc(OCc3cnccn3)cc2)c1
IC50 [1]: > 99.5 µM | IC50 [2]: > 100 µM

NCc1cc(F)cc(NC(=O)c2cc(Cl)cc(NC(=O)OCc3ccccc3)c2)c1
IC50 [1]: > 99.5 µM | IC50 [2]: > 100 µM

NCc1cccc(NC(=O)c2cc(Cl)ccc2OCC(F)(F)F)c1
IC50 [1]: > 99.5 µM | IC50 [2]: > 100 µM

NC[C@]1(F)C[C@@H](NC(=O)c2cc(Cl)cc(NC(=O)OCc3ccccc3)c2)C1
IC50 [1]: 66.6 µM | IC50 [2]: > 100 µM

NCc1cccc(NC(=O)[C@H](NC(=O)OCc2ccccc2)c2cccc(OCCn3cccn3)c2)c1
IC50 [1]: > 99.5 µM | IC50 [2]: > 100 µM

NS(=O)(=O)c1cccc(N2CCN(Cc3c[nH]c4ccccc34)CC2)c1
IC50 [1]: > 99.5 µM | IC50 [2]: > 100 µM

Cc1csc(N2CCN(Cc3c[nH]c4ccccc34)CC2)n1
IC50 [1]: > 99.5 µM | IC50 [2]: > 100 µM

C[C@@H](N)c1cccc(NC(=O)c2cc(Cl)cc(NC(=O)OCc3ccccc3)c2)c1
IC50 [1]: 81 µM | IC50 [2]: > 100 µM
